What was measured:
D(3) dopamine receptor = D(3) dopamine receptor (Homo sapiens, UniProt P35462); experiment: DRUGMATRIX: Dopamine D3 radioligand binding (ligand: [3H] Spiperone); assay type: cell membranes, CHO, Membrane; conditions: cho
Insulin receptor = Insulin receptor (Rattus norvegicus, UniProt P15127); assay type: cell membranes, Wistar, Liver, Membrane; further: in other assays of this panel Not Active means under 50% inhibition at 10 µM
Adenosine receptor A3 = molecular target: T1, Adenosine receptor A3 (Homo sapiens, UniProt P0DMS8); assay type: cell membranes, CHO-K1, Membrane; conditions: cho-k1;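 further: radioligand binding assay with AB-MECA serving as the labeled ligand; in other assays of this panel Not Active means under 50% inhibition at 10 µM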
T1 sequence (P0DMS8 whole entry): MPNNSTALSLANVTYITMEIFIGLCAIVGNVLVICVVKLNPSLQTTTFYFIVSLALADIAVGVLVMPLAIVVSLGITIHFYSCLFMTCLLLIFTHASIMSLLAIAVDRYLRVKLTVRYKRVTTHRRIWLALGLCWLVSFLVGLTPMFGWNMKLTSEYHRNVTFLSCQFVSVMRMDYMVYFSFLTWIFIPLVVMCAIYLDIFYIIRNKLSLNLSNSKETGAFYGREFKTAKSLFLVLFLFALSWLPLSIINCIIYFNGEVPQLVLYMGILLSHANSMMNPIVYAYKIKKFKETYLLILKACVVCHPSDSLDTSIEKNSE

[1] = DRUGMATRIX: Calcium Channel Type L, Dihydropyridine radioligand binding (ligand: [3H] Nitrendipine); assay type: cell membranes, Rattus norvegicus, Wistar, Cerebral cortex, Membrane; conditions: Not Active = under 50% inhibition at 10 µM
[2] = molecular target: Matrix metalloproteinase-9 (Homo sapiens, UniProt P14780); assay type: cell-based;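 further: inhibition of isolated MMP-9 enzyme activity toward a synthetic peptide substrate, from the DrugMatrix protease screening panel; in other assays of this panel Not Active means under 50% inhibition at 10 µM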
Chain of Matrix metalloproteinase-9 (P14780 whole entry): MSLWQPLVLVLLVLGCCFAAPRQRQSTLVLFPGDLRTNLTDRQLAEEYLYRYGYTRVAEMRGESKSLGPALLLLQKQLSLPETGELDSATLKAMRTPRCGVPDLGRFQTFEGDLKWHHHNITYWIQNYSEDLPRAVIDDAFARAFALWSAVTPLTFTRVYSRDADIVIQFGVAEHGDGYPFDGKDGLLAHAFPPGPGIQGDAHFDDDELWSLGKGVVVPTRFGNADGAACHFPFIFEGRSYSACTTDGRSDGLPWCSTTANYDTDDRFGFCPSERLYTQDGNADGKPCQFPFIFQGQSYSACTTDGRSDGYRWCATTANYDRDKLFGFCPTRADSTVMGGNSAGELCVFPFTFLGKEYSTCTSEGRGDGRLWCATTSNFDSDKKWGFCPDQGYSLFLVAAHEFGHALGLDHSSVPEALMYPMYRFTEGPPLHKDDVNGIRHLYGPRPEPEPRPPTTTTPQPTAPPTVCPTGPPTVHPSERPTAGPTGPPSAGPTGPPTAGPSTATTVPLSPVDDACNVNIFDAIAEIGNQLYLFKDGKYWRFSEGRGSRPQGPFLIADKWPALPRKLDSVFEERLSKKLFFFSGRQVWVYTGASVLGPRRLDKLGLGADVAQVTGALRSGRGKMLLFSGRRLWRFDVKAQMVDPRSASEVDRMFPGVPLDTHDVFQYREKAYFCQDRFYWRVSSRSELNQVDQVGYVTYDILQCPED

[3] = DRUGMATRIX: Potassium Channel [KATP] radioligand binding (ligand: [3H] Glyburide); assay type: cell membranes, Membrane; conditions: hit-t15; Not Active = under 50% inhibition at 10 µM
Cytochrome P450 3A4 = Cytochrome P450 3A4 (Homo sapiens, UniProt P08684); conditions: bti-tn-5b1-4; further: in other assays of this panel Not Active means under 50% inhibition at 10 µM
Chain of Cytochrome P450 3A4 (P08684 whole entry): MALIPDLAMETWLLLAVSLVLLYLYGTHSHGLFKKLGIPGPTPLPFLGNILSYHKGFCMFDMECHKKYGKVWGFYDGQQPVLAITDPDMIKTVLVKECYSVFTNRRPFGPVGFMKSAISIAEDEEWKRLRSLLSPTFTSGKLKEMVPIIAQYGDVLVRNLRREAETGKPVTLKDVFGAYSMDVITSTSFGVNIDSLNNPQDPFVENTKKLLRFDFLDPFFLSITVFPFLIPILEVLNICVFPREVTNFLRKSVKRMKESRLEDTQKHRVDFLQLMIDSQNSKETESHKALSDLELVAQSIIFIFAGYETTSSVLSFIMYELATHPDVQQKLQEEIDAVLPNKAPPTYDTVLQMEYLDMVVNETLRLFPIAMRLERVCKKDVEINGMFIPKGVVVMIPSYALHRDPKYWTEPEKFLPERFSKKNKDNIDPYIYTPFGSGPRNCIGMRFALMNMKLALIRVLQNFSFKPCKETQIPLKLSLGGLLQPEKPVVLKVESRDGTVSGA

Melanocortin receptor 4 = Melanocortin receptor 4 (Homo sapiens, UniProt P32245); assay type: cell membranes, Membrane; conditions: hek293; further: in other assays of this panel Not Active means under 50% inhibition at 10 µM
Chain of Melanocortin receptor 4 (P32245 whole entry): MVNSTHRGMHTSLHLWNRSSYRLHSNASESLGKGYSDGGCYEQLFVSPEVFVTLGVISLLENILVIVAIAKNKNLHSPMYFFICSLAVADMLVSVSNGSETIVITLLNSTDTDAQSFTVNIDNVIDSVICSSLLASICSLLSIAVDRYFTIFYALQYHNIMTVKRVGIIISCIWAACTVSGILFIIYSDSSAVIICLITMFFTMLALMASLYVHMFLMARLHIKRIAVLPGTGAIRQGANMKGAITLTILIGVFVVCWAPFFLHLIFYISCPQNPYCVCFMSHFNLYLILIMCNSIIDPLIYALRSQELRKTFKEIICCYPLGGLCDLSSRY

[4] = DRUGMATRIX: beta-Lactamase enzyme inhibition (substrate: Nitrocefin); set-up: species or system Bacillus cereus; conditions: Not Active = under 50% inhibition at 10 µM
Acetylcholinesterase = Acetylcholinesterase (Homo sapiens, UniProt P22303); experiment: DRUGMATRIX: Acetylcholinesterase enzyme inhibition (substrate: acetylthiocholine); assay type: cell-based, HEK293; conditions: hek293; Not Active = under 50% inhibition at 10 µM
Chain of Acetylcholinesterase (P22303 whole entry): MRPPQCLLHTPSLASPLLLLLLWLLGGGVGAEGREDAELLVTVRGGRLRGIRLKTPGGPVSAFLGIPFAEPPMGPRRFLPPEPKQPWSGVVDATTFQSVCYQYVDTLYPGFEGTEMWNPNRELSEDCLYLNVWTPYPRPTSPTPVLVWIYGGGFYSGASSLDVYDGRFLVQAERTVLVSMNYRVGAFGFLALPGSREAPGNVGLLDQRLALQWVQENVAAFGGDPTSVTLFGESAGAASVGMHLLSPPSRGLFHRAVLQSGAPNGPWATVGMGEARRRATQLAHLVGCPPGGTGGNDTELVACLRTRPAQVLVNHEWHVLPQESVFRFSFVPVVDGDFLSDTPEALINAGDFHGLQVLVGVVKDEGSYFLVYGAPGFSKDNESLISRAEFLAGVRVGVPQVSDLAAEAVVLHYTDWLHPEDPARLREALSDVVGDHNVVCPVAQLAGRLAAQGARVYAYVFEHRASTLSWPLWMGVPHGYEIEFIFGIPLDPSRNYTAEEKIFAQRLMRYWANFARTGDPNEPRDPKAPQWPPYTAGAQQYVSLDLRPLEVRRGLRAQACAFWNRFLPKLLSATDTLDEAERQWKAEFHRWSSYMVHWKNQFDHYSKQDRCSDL

[5] = DRUGMATRIX: Phosphodiesterase PDE4 enzyme inhibition (substrate: [3H]cAMP + cAMP); conditions: u-937; Not Active = under 50% inhibition at 10 µM
[6] = DRUGMATRIX: ATPase, Na+/K+ enzyme inhibition (substrate: ATP); assay type: tissue-based, Sus scrofa, Heart; conditions: Not Active = under 50% inhibition at 10 µM
[7] = molecular target: T2, Neuropeptide Y receptor type 2 (Homo sapiens, UniProt P49146); assay type: cell membranes, Membrane; conditions: kan-ts; further: in other assays of this panel Not Active means under 50% inhibition at 10 µM
T2 sequence (P49146 whole entry): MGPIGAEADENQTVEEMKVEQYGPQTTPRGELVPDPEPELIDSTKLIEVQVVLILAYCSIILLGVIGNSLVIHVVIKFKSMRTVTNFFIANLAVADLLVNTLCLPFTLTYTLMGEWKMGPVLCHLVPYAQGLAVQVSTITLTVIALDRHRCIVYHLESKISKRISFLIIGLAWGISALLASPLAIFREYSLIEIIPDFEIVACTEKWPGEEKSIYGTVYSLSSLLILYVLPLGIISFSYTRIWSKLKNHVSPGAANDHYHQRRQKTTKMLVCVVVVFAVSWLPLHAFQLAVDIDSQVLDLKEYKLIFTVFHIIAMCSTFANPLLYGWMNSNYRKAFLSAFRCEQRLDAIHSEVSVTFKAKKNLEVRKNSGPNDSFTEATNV

Cannabinoid receptor 1 = Cannabinoid receptor 1 (Homo sapiens, UniProt P21554); assay type: cell membranes, Membrane; conditions: chem-1; further: in other assays of this panel Not Active means under 50% inhibition at 10 µM
Chain of Cannabinoid receptor 1 (P21554 whole entry): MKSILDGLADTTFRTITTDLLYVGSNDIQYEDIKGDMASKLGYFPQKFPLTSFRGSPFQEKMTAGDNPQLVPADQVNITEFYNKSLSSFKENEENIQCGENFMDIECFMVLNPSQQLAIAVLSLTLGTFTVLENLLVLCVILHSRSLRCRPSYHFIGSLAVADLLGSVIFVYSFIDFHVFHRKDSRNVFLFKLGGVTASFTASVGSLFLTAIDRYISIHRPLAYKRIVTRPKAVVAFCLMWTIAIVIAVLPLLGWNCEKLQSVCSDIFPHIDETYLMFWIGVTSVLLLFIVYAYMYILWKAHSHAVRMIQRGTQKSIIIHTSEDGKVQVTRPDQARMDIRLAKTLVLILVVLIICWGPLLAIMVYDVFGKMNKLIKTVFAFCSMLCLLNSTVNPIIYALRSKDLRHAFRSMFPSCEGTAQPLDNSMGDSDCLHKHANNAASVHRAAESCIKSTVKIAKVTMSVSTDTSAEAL

Substance-P receptor = Substance-P receptor (Homo sapiens, UniProt P25103); assay type: cell membranes, CHO, Membrane; conditions: cho; further: in other assays of this panel Not Active means under 50% inhibition at 10 µM
Chain of Substance-P receptor (P25103 whole entry): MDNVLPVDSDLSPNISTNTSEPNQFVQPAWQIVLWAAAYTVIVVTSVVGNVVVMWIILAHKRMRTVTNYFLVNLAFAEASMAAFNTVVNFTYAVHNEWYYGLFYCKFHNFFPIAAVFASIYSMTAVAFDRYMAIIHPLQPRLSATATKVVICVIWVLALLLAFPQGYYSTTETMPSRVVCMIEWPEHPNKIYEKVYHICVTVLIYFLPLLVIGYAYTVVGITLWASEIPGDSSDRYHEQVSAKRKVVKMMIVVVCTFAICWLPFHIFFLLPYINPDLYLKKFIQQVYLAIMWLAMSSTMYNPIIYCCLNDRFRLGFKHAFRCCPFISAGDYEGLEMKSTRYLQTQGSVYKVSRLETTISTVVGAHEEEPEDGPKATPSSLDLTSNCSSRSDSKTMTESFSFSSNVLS

Chain of Insulin receptor (P15127 27-759 limits assumed): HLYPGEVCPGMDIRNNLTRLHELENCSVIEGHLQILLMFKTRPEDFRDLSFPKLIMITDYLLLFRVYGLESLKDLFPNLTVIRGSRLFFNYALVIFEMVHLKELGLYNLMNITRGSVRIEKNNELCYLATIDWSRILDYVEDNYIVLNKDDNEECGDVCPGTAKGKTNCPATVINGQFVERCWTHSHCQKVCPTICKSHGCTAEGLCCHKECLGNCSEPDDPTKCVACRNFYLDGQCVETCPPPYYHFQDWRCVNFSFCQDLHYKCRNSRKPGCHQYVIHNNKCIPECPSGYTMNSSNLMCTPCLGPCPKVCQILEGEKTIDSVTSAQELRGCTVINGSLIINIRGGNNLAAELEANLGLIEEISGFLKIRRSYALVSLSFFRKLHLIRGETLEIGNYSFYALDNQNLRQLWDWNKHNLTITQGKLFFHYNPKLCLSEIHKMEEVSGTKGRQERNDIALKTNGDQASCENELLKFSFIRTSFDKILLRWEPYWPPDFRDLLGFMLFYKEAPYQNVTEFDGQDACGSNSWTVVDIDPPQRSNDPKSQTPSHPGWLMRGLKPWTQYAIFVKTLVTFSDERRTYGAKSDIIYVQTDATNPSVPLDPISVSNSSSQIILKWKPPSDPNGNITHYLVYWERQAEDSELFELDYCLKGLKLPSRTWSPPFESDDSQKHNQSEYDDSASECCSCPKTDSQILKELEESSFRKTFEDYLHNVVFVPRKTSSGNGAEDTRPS
Chain of Insulin receptor (P15127 764-1383 limits assumed): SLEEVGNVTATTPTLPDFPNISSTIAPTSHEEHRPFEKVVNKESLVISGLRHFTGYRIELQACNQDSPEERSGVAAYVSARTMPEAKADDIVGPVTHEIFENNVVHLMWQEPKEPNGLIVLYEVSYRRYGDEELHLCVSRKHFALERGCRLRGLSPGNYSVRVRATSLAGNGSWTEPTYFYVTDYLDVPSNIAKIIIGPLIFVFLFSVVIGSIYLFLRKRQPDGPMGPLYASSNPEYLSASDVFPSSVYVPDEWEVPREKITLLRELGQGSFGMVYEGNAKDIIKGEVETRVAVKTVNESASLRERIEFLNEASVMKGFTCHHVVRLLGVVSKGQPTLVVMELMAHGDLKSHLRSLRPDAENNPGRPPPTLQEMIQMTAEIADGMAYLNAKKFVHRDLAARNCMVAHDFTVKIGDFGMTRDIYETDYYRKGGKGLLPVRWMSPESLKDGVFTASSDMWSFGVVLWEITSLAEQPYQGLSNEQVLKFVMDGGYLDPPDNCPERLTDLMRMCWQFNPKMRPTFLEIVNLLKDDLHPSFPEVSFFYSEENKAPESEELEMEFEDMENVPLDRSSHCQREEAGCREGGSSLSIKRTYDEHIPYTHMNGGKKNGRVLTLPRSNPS
Chain of D(3) dopamine receptor (P35462 whole entry): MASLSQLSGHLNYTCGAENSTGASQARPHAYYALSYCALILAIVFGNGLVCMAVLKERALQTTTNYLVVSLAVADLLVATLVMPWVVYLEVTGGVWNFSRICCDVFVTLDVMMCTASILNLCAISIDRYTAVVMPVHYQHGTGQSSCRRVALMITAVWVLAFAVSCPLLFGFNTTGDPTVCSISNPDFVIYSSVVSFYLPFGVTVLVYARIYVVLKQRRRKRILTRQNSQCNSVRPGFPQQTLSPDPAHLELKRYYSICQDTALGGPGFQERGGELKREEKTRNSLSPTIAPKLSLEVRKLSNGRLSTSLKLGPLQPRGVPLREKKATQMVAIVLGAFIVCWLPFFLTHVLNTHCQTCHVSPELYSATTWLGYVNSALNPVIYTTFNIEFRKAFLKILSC

O=C1CCc2cc(OCCCCc3nnnn3C3CCCCC3)ccc2N1 [CILOSTAZOL]
Not Active: IC50 (D(3) dopamine receptor) | IC50 (Insulin receptor) | IC50 (Adenosine receptor A3) | IC50 [1] | Ki [1] | IC50 [2] | IC50 [3] | Ki [3] | IC50 (Cytochrome P450 3A4) | Ki (Cytochrome P450 3A4) | IC50 (Melanocortin receptor 4) | IC50 [4] | Ki [4] | IC50 (Acetylcholinesterase) | IC50 [5] | Ki [5] | IC50 [6] | Ki [6] | IC50 [7] | IC50 (Cannabinoid receptor 1) | IC50 (Substance-P receptor)

CN(C)CCCC1(c2ccc(F)cc2)OCc2cc(C#N)ccc21 (configuration not stated) [CITALOPRAM]
Not Active: IC50 (D(3) dopamine receptor) | IC50 (Insulin receptor) | IC50 (Adenosine receptor A3) | IC50 [1] | Ki [1] | IC50 [2] | IC50 [3] | Ki [3] | IC50 (Cytochrome P450 3A4) | Ki (Cytochrome P450 3A4) | IC50 (Melanocortin receptor 4) | IC50 [4] | Ki [4] | IC50 (Acetylcholinesterase) | IC50 [5] | Ki [5] | IC50 [6] | Ki [6] | IC50 [7] | IC50 (Cannabinoid receptor 1) | IC50 (Substance-P receptor)

C[C@]12CCC(=O)C=C1CC[C@@H]1[C@@H]2C(=O)C[C@@]2(C)[C@H]1CC[C@]2(O)C(=O)CO [CORTISONE]
Not Active: IC50 (D(3) dopamine receptor) | IC50 (Insulin receptor) | IC50 (Adenosine receptor A3) | IC50 [1] | Ki [1] | IC50 [2] | IC50 [3] | Ki [3] | IC50 (Cytochrome P450 3A4) | Ki (Cytochrome P450 3A4) | IC50 (Melanocortin receptor 4) | IC50 [4] | Ki [4] | IC50 (Acetylcholinesterase) | IC50 [5] | Ki [5] | IC50 [6] | Ki [6] | IC50 [7] | IC50 (Cannabinoid receptor 1) | IC50 (Substance-P receptor)

Cc1ccccc1N1CCN(CCc2nnc3n2CCCC3)CC1 [DAPIPRAZOLE]
Not Active: IC50 (D(3) dopamine receptor) | IC50 (Insulin receptor) | IC50 (Adenosine receptor A3) | IC50 [1] | Ki [1] | IC50 [2] | IC50 [3] | Ki [3] | IC50 (Cytochrome P450 3A4) | Ki (Cytochrome P450 3A4) | IC50 (Melanocortin receptor 4) | IC50 [4] | Ki [4] | IC50 (Acetylcholinesterase) | IC50 [5] | Ki [5] | IC50 [6] | Ki [6] | IC50 [7] | IC50 (Cannabinoid receptor 1) | IC50 (Substance-P receptor)

CC1=Nc2ccc(Cl)cc2S(=O)(=O)N1 [DIAZOXIDE]
Not Active: IC50 (D(3) dopamine receptor) | IC50 (Insulin receptor) | IC50 (Adenosine receptor A3) | IC50 [1] | Ki [1] | IC50 [2] | IC50 [3] | Ki [3] | IC50 (Cytochrome P450 3A4) | Ki (Cytochrome P450 3A4) | IC50 (Melanocortin receptor 4) | IC50 [4] | Ki [4] | IC50 (Acetylcholinesterase) | IC50 [5] | Ki [5] | IC50 [6] | Ki [6] | IC50 [7] | IC50 (Cannabinoid receptor 1) | IC50 (Substance-P receptor)

CC(=O)OCC(=O)[C@@]1(OC(C)=O)[C@@H](C)C[C@H]2[C@@H]3C[C@H](F)C4=CC(=O)C=C[C@]4(C)[C@@]3(F)[C@@H](O)C[C@@]21C [DIFLORASONE DIACETATE]
Not Active: IC50 (D(3) dopamine receptor) | IC50 (Insulin receptor) | IC50 (Adenosine receptor A3) | IC50 [1] | Ki [1] | IC50 [2] | IC50 [3] | Ki [3] | IC50 (Cytochrome P450 3A4) | Ki (Cytochrome P450 3A4) | IC50 (Melanocortin receptor 4) | IC50 [4] | Ki [4] | IC50 (Acetylcholinesterase) | IC50 [5] | Ki [5] | IC50 [6] | Ki [6] | IC50 [7] | IC50 (Cannabinoid receptor 1) | IC50 (Substance-P receptor)

CCc1ccc(C(=O)C(C)CN2CCCCC2)cc1 (configuration not stated) [EPERISONE]
Not Active: IC50 (D(3) dopamine receptor) | IC50 (Insulin receptor) | IC50 (Adenosine receptor A3) | IC50 [1] | Ki [1] | IC50 [2] | IC50 [3] | Ki [3] | IC50 (Cytochrome P450 3A4) | Ki (Cytochrome P450 3A4) | IC50 (Melanocortin receptor 4) | IC50 [4] | Ki [4] | IC50 (Acetylcholinesterase) | IC50 [5] | Ki [5] | IC50 [6] | Ki [6] | IC50 [7] | IC50 (Cannabinoid receptor 1) | IC50 (Substance-P receptor)
